Reference: ChEMBL document CHEMBL4813955 (Eur J Med Chem, 2021)
Activity calls are given as the source filed them. No cut-off for these calls is given here.

Columns and labels:
[1] = target: T1, D(4) dopamine receptor (Homo sapiens) (UniProt P21917); assay: Displacement of [3H]N-methylspiperone from human dopamine D4 receptor at 10 uM incubated for 1 hr by liquid scintillation counting method
T1 sequence (whole entry): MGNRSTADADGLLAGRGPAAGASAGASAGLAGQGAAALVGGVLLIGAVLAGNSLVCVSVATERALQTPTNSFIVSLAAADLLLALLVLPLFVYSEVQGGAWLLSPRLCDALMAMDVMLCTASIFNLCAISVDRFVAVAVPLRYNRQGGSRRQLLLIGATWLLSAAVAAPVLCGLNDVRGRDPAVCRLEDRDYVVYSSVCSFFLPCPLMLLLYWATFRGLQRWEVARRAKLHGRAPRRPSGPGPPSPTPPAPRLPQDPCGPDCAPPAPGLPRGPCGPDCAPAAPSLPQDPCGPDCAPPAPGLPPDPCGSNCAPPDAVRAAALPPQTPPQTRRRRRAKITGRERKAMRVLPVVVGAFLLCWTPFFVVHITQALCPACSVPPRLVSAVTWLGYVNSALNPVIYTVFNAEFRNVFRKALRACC

[2] = target: D(3) dopamine receptor (Homo sapiens, UniProt P35462); assay: Displacement of [3H]N-methylspiperone from human dopamine D3 receptor at 10 uM incubated for 1 hr by liquid scintillation counting method
Chain of D(3) dopamine receptor (P35462 whole entry): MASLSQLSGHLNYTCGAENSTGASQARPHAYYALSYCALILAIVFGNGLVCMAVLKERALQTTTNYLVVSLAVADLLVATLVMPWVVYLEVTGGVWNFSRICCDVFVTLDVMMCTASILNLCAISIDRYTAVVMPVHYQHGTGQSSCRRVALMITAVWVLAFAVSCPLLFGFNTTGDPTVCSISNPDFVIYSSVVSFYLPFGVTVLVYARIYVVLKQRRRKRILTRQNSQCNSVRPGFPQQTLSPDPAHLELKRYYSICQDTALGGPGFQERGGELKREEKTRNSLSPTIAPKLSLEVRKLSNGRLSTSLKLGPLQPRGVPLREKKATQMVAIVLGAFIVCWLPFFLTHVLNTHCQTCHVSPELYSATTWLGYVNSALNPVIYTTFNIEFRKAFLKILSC

[3] = target: D(2) dopamine receptor (Homo sapiens, UniProt P14416); assay: Displacement of [3H]N-methylspiperone from human dopamine D2 receptor at 10 uM incubated for 1 hr by liquid scintillation counting method
Chain of D(2) dopamine receptor (P14416 whole entry): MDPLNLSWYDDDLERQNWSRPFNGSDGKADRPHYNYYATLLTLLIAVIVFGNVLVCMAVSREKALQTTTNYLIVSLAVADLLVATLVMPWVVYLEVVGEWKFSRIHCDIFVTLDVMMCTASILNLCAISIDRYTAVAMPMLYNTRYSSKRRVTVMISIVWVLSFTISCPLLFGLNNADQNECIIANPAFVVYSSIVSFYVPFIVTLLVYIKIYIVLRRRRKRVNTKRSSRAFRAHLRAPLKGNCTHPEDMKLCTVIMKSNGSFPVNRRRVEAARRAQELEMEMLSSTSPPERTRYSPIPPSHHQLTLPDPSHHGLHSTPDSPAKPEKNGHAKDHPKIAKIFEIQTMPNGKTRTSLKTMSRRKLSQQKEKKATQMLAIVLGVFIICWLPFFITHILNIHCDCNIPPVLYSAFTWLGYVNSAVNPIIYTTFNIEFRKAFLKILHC

[4] = target: T2, 5-hydroxytryptamine receptor 2C (Homo sapiens) (UniProt P28335); assay: Displacement of [3H]-Mesulergine from human 5-HT2C receptor at 10 uM incubated for 1 hr by liquid scintillation counting method
T2 sequence (whole entry): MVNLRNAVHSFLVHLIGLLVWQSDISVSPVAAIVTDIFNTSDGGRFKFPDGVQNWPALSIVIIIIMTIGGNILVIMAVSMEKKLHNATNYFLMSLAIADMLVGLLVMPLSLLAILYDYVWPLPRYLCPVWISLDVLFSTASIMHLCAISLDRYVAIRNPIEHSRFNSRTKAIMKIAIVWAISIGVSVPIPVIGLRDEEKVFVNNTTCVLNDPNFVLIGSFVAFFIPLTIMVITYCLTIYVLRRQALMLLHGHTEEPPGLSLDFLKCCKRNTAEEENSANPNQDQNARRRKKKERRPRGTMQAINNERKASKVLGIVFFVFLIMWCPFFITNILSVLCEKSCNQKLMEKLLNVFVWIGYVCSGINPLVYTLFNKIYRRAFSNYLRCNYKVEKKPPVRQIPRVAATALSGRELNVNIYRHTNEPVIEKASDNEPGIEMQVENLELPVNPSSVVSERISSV

SMILES	inhibition [3]	inhibition [4]	other results
O=C1CCc2cc(OCCCN3CCCN(c4ccccn4)CC3)ccc2N1	–	–	inhibition [1]: inactive
OC1c2ccc(F)cc2CC1CCN1CCN(c2ccccn2)CC1 (stereo not given)	–	inactive	–
O=C1CCc2cc(OCCCN3CCN(c4ccccn4)CC3)ccc21	inactive	–	–
Nc1ccc(CCCCN2CCN(c3ccccn3)CC2)cc1	–	inactive	–

Second part, led by results:

inhibition [3]	inhibition [4]	SMILES	other results
inactive	–	O=C1c2ccc(Cl)cc2CC1CCN1CCN(c2ccccn2)CC1 (stereo not given)	inhibition [2]: inactive
inactive	inactive	O=C1c2ccc(F)cc2CC1CCN1CCN(c2ccccn2)CC1 (stereo not given)	–
–	inactive	O=C1CCc2cc(C(=O)CCCN3CCN(c4ccccn4)CC3)ccc2N1	–
inactive	–	O=C1c2ccc(Cl)cc2CC1CCCN1CCN(c2ccccn2)CC1 (stereo not given)	–
